Details of data set [1]: method as in PMID 24632843. Particulars: bile duct-cannulated (BDC) rats, in 24 h; cited from earlier work.
Data set [2] can be described thus: Preliminary experiment: effect of NC-siRNA on pharmacokinetics of TP in mice. It counts as in vivo. Particulars: mice, plasma; for AUC(0-t) / Cmax / MRT / Vd / clearance: 1 mg/kg. Here is the method: Effect of NC-siRNA on pharmacokinetic of TP
Mice were divided into two groups to collect blood samples (n=5 each): (1) 1.0 mg/kg TP + saline group; (2) 1.0 mg/kg TP + 15 nmol NC-siRNA group. The siRNA group was intravenously injected with NC-siRNA 2 days before TP dose. Blood samples were collected at 2, 5, 10, 15, 30, 60 and 120 min after TP dosing. The concentrations of TP in plasma and liver were measured by a validated LC-MS/MS method.

Data set [3] deals with BALB/C mice. Nature of the data set: Liver histopathology (HE staining) in mice. It counts as in vivo. Particulars: TP 1 mg/kg iv, 24 h, TP = NC-siRNA group, tariquidar and mdr1a-1 siRNA = given before TP. As to the method:
For TP plasma kinetic study and toxicological evaluation, mice were divided into four groups (n = 5 each) to collect blood and tissue samples: (1) normal + saline group; (2) 1.0 mg/kg TP + 15 nmol NC-siRNA group; (3) 1.0 mg/kg TP + 15 nmol mdr1a-siRNA group; (4) 1.0 mg/kg TP + 10 mg/kg tariquidar group. In order to avoid the complication caused by drug absorption or possible intestinal first-pass effect, TP and the inhibitor were intravenously administrated to mice. The siRNA group was intravenously injected with NC-siRNA or mdr1a-siRNA 2 days before TP dose. For TP + tariquidar group, the mice were received an intravenous tariquidar dose 20 min prior to the TP injection. Blood samples were collected at 2, 5, 10, 15, 30, 60 and 120 min after TP dosing. To assess the liver exposure of TP, liver tissue samples were collected from another set of mice at 5, 30, 60 and 120 min after dosing. […] The concentrations of TP in plasma and liver tissue were measured by a validated LC-MS/MS method. […]
(§1) At 24 h of TP treatment, blood and liver tissue samples were collected from the mice in plasma kinetic study. Serum ALT and AST levels were determined with a CL8000 automated biochemical analyzer (Shimadzu, Japan) after serum was separated by centrifugation at 900 g for 10 min. […] The total protein concentration was quantified by the BCA assay. Bcl-2 and Bax proteins were measured by western blot.

The test system of data set [4] is BALB/C mice. Description: Hepatic MDA content and SOD activity in mice. Particulars: 24 h; for Hepatic MDA level, fold increase: significance vs normal group. It counts as in vivo. As to the method:
For TP plasma kinetic study and toxicological evaluation, mice were divided into four groups (n = 5 each) to collect blood and tissue samples: (1) normal + saline group; (2) 1.0 mg/kg TP + 15 nmol NC-siRNA group; (3) 1.0 mg/kg TP + 15 nmol mdr1a-siRNA group; (4) 1.0 mg/kg TP + 10 mg/kg tariquidar group. In order to avoid the complication caused by drug absorption or possible intestinal first-pass effect, TP and the inhibitor were intravenously administrated to mice. The siRNA group was intravenously injected with NC-siRNA or mdr1a-siRNA 2 days before TP dose. For TP + tariquidar group, the mice were received an intravenous tariquidar dose 20 min prior to the TP injection. Blood samples were collected at 2, 5, 10, 15, 30, 60 and 120 min after TP dosing. To assess the liver exposure of TP, liver tissue samples were collected from another set of mice at 5, 30, 60 and 120 min after dosing. Three TP groups were design for this experiment, including TP + NC-siRNA group, TP + mdr1a-siRNA group and TP + tariquidar group. The liver tissue samples were weighed and then homogenized in 10 volume (w:v) of ice-cold saline. The concentrations of TP in plasma and liver tissue were measured by a validated LC-MS/MS method. Prior to the above animal study, a preliminary experiment was performed to assess the possible differences in liver P-gp protein expression (Figure S1) and TP plasma kinetics between NC-siRNA treated mice and normal mice (with saline) (Figure S2 and supplemental Table 1). […] Therefore, NC-siRNA group was used as the control in the following animal study.
as §1

In a further data set the test system is Bcl-2/Bax. Nature of the data set: Bcl-2 and Bax expression in mouse liver (western blot). It is filed as in vivo. Particulars: mice, TP 1 mg/kg iv, 24 h; tariquidar and mdr1a-siRNA = given before TP. As to the method: For protein extraction, the cells or mice liver tissues were homogenized in RIPA buffer and then centrifuged at 14,000 g at 4 °C for 30 min. The supernatant was collected and the protein concentration was measured using BCA assay. The sample (50 μg protein/sample) was then loaded on 12% polyacrylamide gels and transferred to polyvinylidene difluoride membranes (Millipore, USA). After blocked by 3% bovine serum albumin, the membranes were incubated with primary antibodies and HRP-conjugated secondary antibody, and then detected using the enhanced chemiluminescence plus detection system (Molecular Device, Lmax, USA). The density of each band was quantified by using image analysis software (Science Lab 2005 Image Guage; Tokyo, Japan).
as §1, with “min. Liver tissue samples were divided into two parts, the first half was kept at −80 °C until MDA and SOD measurements using MDA and SOD assay kits (Nanjing Jiancheng Bioengineering Institute, Nanjing, China) according to the manufacturer’s instructions.” for “min.”
Background: In western blotting, separated proteins are transferred to a membrane and probed.

The mark [5] stands for this setting: C57, mouse, iv, TP 1.0 mg/kg + saline.
The mark [6] stands for this setting: C57, mouse, iv, TP 1.0 mg/kg + 15 nmol NC-siRNA iv 2 days before.

We go through one molecule from article PMC4488747, “Inhibition of P-glycoprotein Gene Expression and Function Enhances Triptolide-induced Hepatotoxicity in Mice” (Scientific Reports, 2015).

Consider `CC(C)[C@]12O[C@H]1[C@@H]1O[C@]13[C@]1(O[C@H]1C[C@H]1C4=C(CC[C@@]13C)C(=O)OC4)[C@@H]2O` [TP, Triptolide], for which the “TP dose excreted via bile” value in data set [1] is reported as roughly 39%. In data set [2] (setting [5]), the half-life (usually the time needed for the level to fall by half in the phase considered) was 12.6 ± 3 min, the AUC(0-t) stood at 0.104 ± 0.0134 µg·h/mL, the Cmax is 0.351 ± 0.0109 µg/mL and the MRT was found to be 13.8 ± 1.8 min. Also, in data set [2] (setting [5]), the Vd stood at 3 ± 0.3 L/kg and the clearance is 9.91 L/h/kg. Besides, in data set [2] (setting [6]), the AUC(0-t) came to 0.0991 ± 0.0117 µg·h/mL, the Cmax came out at 0.331 ± 0.0182 µg/mL, the MRT was 15.6 ± 2.4 min and the Vd came out at 3.1 ± 0.6 L/kg. Also, in data set [2] (setting [6]), the clearance is 10.4 L/h/kg. In addition, the t1/2 in data set [2] (TP 1.0 mg/kg + 15 nmol NC-siRNA iv 2 days before) is 12.6 ± 3.6 min. In addition, in the data set on BALB/C mice [3], the “Histopathological changes in liver (HE)” value is “hepatocellular hydropic degeneration and vacuolization”. Also, the “Hepatic MDA level, fold increase” value with BALB/C mice [4] (TP 1 mg/kg iv + mdr1a-siRNA) came to 1.6 fold. For the same molecule, the “Hepatic MDA level, fold increase” value in the data set on BALB/C mice [4] (TP 1 mg/kg iv + tariquidar 10 mg/kg) is listed as 1.3 fold. Besides, in the data set with BALB/C mice [4] (all three TP groups, significant only with tariquidar or mdr1a-siRNA), the “Hepatic SOD activity” value is reported as “reduction”. Further, the “Bcl-2/Bax ratio in liver” value with Bcl-2/Bax is given as “significantly reduced”.
